1 compound from paper PMC5989765, “The safety, tolerability, and pharmacokinetic profile of GSK2838232, a novel 2nd generation HIV maturation inhibitor, as assessed in healthy subjects” (Pharmacology Research & Perspectives, 2018) can be followed below.

Data set [1] can be described thus: Study 204953 Part 1A: single doses 50-250 mg API PiB with RTV, healthy subjects. It is filed as in vivo, human. To be noted: for Cmax / Tmax / concentration at 24 h / AUC / half-life: human, plasma, oral; for Tmax / concentration at 24 h: median (range); for concentration at 24 h: read-out: C24; for AUC: read-out: AUC(0‐∞); for half-life: read-out: t½ (converted); for dose proportionality of exposure (AUC and C max): single doses 50 to 250 mg with RTV. As for the experimental part: (§1) This study was planned as an extension of the previously conducted single‐ and multiple‐dose escalation studies described above. It was a double‐blind, placebo‐controlled, single and repeat dose escalation study of micronized API GSK2838232 with RTV conducted in three parts (Part 1A, Part 1B, and Part 2).
(§2) In Part 1A, a cohort of subjects was given single doses of 50, 100, and 250 mg of GSK2838232 with RTV, following 2 days of RTV predosing, in a sequential dose‐escalation design. Part 1B studied the relative bioavailability of GSK2838232 given as 100 mg (2 × 50 mg) capsules versus the reference API (PiB) in a two‐period crossover design with RTV, following 2 days of RTV predosing. In Period 3, subjects took the capsule formulation and RTV with a moderate fat meal (30% of calories from fat).
(§3) Blood samples were taken via an indwelling cannula or by direct venipuncture, collected into a di‐potassium ethylenediaminetetraacetic acid (K2 EDTA) tube, and placed on wet ice. Samples were centrifuged at approximately 1500g for 10 minutes at approximately 4°C. Exactly 500 μL of the resulting plasma was transferred into labeled 1.4 mL Matrix TrakMate Tubes containing exactly 500 μL of 50 mmol/L citrate buffer, pH 4.0, and mixed well. When 500 μL of plasma was not able to be transferred, the ratio of plasma to citrate buffer was kept at 1:1. Buffered plasma samples were kept on ice and frozen at −70°C within 1 hour of collection. Plasma samples were analyzed for GSK2838232 using a validated analytical method based on protein precipitation, followed by high performance liquid chromatography with tandem mass spectrometry (HPLC/MS/MS) analysis.
(§4) Extracts were analyzed using HPLC (Shimadzu, Nexera, 30 series) and tandem mass spectrometry detection (HPLC‐MS/MS). The mass spectrometer used was an API‐5500 using IonSpray interface (500 V) in positive mode monitoring. The mass transitions were 809.5 to 255.1 and 816.5 to 262.1 for GSK2838232 and [2H7] GSK2838232 (the isotopically labeled internal standard), respectively. The chromatographic conditions utilized a Waters Acquity UPLC BEH C18 column (50 × 2.1 mm, 1.7 μm) with mobile phases consisting of 1 mmol/L ammonium formate:formic acid (100:0.005) (mobile phase A) and acetonitrile:formic acid (100:0.1) (mobile phase B) at a flow rate of 0.6 mL/min, with pump B at 63% held for 2 minutes. The assay was validated to have precision (%RSD) of 0.7%‐6.5% (within‐run) and 1.0%‐5.9% RSD (between‐run) and with accuracy (%bias) of 0.0%‐1.6%. […] The lower limit of quantification (LLQ) was 0.5 ng/mL, using a 50 μL aliquot of K2EDTA acidified plasma. The higher limit of quantification (HLQ) was 500 ng/mL.
(§5) The PK parameters were calculated by standard noncompartmental analysis based on actual sampling times using WinNonlin Version 6.3 or higher. Estimation of AUC used the linear up/log down trapezoidal rule.

Data set [2] is described as follows: Study 204953 Part 1B: relative bioavailability capsule versus API PiB and food effect, with RTV. Format: in vivo. The method, then: as §1, §2, §3, §4, §5
For the assessment of relative bioavailability of the capsule formulation compared to the PiB suspension and of the food effect using the capsule formulation (all with RTV), PK parameters were separately analyzed for each treatment using a mixed effects model with fixed effect terms for period and treatment following loge transformation. Subject was treated as a random effect in the model. Point estimates and their associated 90% CIs were constructed for the differences in PK parameter values between the test and reference treatments. The point estimates and their associated 90% CIs were then back‐transformed to provide point estimates and 90% CIs for the ratios of PK parameters from test and reference treatments on the original scale.

Where [3] appears, read: single 50 mg API PiB, fasted, with ritonavir (2 days predosing).
[4] abbreviates: single 100 mg API PiB, fasted, with ritonavir (2 days predosing), geometric mean (95% CI).
Where [5] appears, read: single 100 mg API PiB, fasted, with ritonavir (2 days predosing).
Setting [6] is: single 250 mg API PiB, fasted, with ritonavir (2 days predosing), geometric mean (95% CI).
The mark [7] stands for this setting: single 250 mg API PiB, fasted, with ritonavir (2 days predosing).
Setting [8] is: 100 mg Fed (moderate, 30% fat meal) versus 100 mg fasted, API capsule formulation with RTV, Study 204953.
Setting [9] is: Capsule : API PiB, single 100 mg + ritonavir, Study 204953.

Entries after “also recorded” stand apart in the source; their conditions may differ. Read-outs that look alike come from different tables or passages of the source.

Regarding `CC(C)C1=C2[C@H]3CC[C@@H]4[C@@]5(C)CC[C@H](OC(=O)CC(C)(C)C(=O)O)C(C)(C)[C@@H]5CC[C@@]4(C)[C@]3(C)CC[C@@]2([C@@H](O)CN(CCN(C)C)Cc2ccc(Cl)cc2)CC1=O` [GSK2838232], in data set [1] (single 50 mg API PiB, fasted, with ritonavir (2 days predosing), geometric mean (95% CI)), the Cmax was found to be 15.7 ng/mL. Besides, in data set [1] (setting [3]), the Tmax came out at 3 h and the concentration at 24 h was determined as 7.26 ng/mL. Moreover, in data set [1] (setting [4]), the Cmax was determined as 24.7 ng/mL; the exposure (AUC) came out at 846 ng·h/mL; the half-life was 17.9 h; the CL/F is 118 (93.3, 150) L/h. For the same compound, in data set [1] (setting [5]), the Tmax was 5 h and the concentration at 24 h came to 13.2 ng/mL. In data set [1] (setting [6]), the Cmax stood at 63 ng/mL, the area under the curve (AUC) worked out at 1690 ng·h/mL and the half-life was 17.9 h. Moreover, in data set [1] (setting [7]), the Tmax worked out at 5.98 h and the concentration at 24 h came out at 24 ng/mL. Besides, in data set [1], the “dose proportionality of exposure (AUC and C max)” value is listed as “proportional PK; also recorded: proportional pharmacokinetics”. In addition, in data set [1] (listed as GSK283832), the “dose proportionality of exposure (AUC and C max)” value is recorded as “generally dose proportional”. In addition, in data set [2] (setting [8]), the “Geometric least square mean ratio [90% CI], AUC(0‐∞)” value is on record as 1.58 (1.412,1.777) and the “Geometric least square mean ratio [90% CI], C max” value is 1.62 (1.376,1.911). Also, in data set [2] (setting [9]), the “Ratio of Geometric Least Square Means, AUC(0‐∞)” value is 1.43 and the “Ratio of Geometric Least Square Means, C max” value is listed as 1.58. For the same compound, the “bioavailability after meal relative to the fasted state” value in data set [2] (capsule formulation with RTV, moderate fat (30%) meal, Study 204953) is “approximately 1.6 fold”. Moreover, in data set [2] (single 100 mg with RTV), the “C24, capsule relative to PiB suspension” value was found to be 1.4 fold and the “C max, capsule relative to PiB suspension” value came out at 1.6 fold. The “t½ geometric LS mean ratio, capsule versus PiB” value in data set [2] (single 100 mg with RTV, data not shown) is reported as “no difference”.
